The values that follow come from PubChem BioAssay (NCI).

Some test systems named below: SF-268 CNS; MALME-3M melanoma; SK-MEL-5 melanoma; 786-0 renal; UACC-257 melanoma; SK-OV-3 ovarian; CAKI-1 renal; HOP-62 NSCLC; LOX IMVI melanoma; EKVX NSCLC.
What all share (assay): inhibition of tumour cell growth, NCI panel, 48 h

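Exposure lasted 48 hours, with cells grown in 96-well plates and compounds tested at five concentrations. GI50: concentration for 50% inhibition of growth. At the TGI there is no net growth.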

Turning to `CN(C)CCCNC1=C(Cl)C(=O)c2ccccc2C1=O`, the GI50 is 4.88 µM with SF-268 CNS; 2.06 µM in the assay with MALME-3M melanoma; 1.6 µM in the assay on SK-MEL-5 melanoma; 11.3 µM in the assay on 786-0 renal; 1.82 µM in the assay on UACC-257 melanoma; 15 µM in the assay with SK-OV-3 ovarian. Also, the GI50 in the assay with CAKI-1 renal was 7.14 µM; in the assay on HOP-62 NSCLC it was 6.23 µM; with LOX IMVI melanoma, 1.61 µM; with EKVX NSCLC, 1.72 µM. The TGI stood at 3.77 µM with MALME-3M melanoma; 2.96 µM in the assay with SK-MEL-5 melanoma; 24.2 µM in the assay with 786-0 renal; 3.25 µM in the assay on UACC-257 melanoma; 28.3 µM with SK-OV-3 ovarian; 20.7 µM in the assay with CAKI-1 renal. Further, the TGI was 17.5 µM in the assay on HOP-62 NSCLC, 3.17 µM in the assay on LOX IMVI melanoma and 3.41 µM in the assay with EKVX NSCLC.

Regarding `CCOC(=O)COc1cccc2c1C(=O)CCO2`, the TGI in the assay with SF-268 CNS, in the assay on MALME-3M melanoma, in the assay on SK-MEL-5 melanoma, in the assay with 786-0 renal, in the assay on UACC-257 melanoma and with SK-OV-3 ovarian was more than 100 µM throughout. Besides, the TGI in the assay on CAKI-1 renal, in the assay on HOP-62 NSCLC, in the assay with LOX IMVI melanoma and in the assay with EKVX NSCLC was more than 100 µM each time.

On to `CCOC(=O)c1ncn2c1[nH]c(=S)c1ccccc12`, for which the TGI in the assay with SF-268 CNS, in the assay on MALME-3M melanoma, with SK-MEL-5 melanoma, in the assay on 786-0 renal, in the assay on UACC-257 melanoma and in the assay with SK-OV-3 ovarian was more than 100 µM throughout. The TGI in the assay on CAKI-1 renal, in the assay with HOP-62 NSCLC, in the assay on LOX IMVI melanoma and in the assay on EKVX NSCLC was more than 100 µM in each case.

`CC[C@@]12CCCN3CC[C@]4(c5cccc(OC)c5N(C(C)=O)[C@@H]4CC1)[C@H]32`: the TGI in the assay with SF-268 CNS, in the assay on MALME-3M melanoma, with SK-MEL-5 melanoma, in the assay with 786-0 renal, in the assay with UACC-257 melanoma and in the assay with SK-OV-3 ovarian was more than 100 µM in each case. The TGI with CAKI-1 renal, in the assay with HOP-62 NSCLC, in the assay with LOX IMVI melanoma and in the assay on EKVX NSCLC was more than 100 µM each time.

Take `CC1(C)COC(c2ccc(C(F)(F)F)cc2C(O)c2ccc3ccccc3c2)=N1` (configuration not stated): the GI50 in the assay on SF-268 CNS is more than 10 µM; in the assay with MALME-3M melanoma, more than 100 µM; in the assay on SK-MEL-5 melanoma, more than 100 µM; in the assay on 786-0 renal, more than 100 µM; in the assay with UACC-257 melanoma, more than 100 µM; in the assay on SK-OV-3 ovarian, more than 100 µM. Besides, the GI50 in the assay on CAKI-1 renal is more than 10 µM; with HOP-62 NSCLC, more than 100 µM; with LOX IMVI melanoma, more than 100 µM; in the assay on EKVX NSCLC, more than 100 µM. The TGI with SF-268 CNS, in the assay with MALME-3M melanoma, with SK-MEL-5 melanoma, in the assay on 786-0 renal, with UACC-257 melanoma and with SK-OV-3 ovarian was more than 100 µM each time. Also, the TGI with CAKI-1 renal, with HOP-62 NSCLC, with LOX IMVI melanoma and in the assay with EKVX NSCLC was more than 100 µM each time.

Regarding `CC(=O)N1[C@H](C(=O)O)CS[C@H]1c1ccncc1`, the TGI in the assay with SF-268 CNS, with MALME-3M melanoma, in the assay on SK-MEL-5 melanoma, in the assay with 786-0 renal, with UACC-257 melanoma and in the assay with CAKI-1 renal was more than 100 µM each time. Further, the TGI in the assay on HOP-62 NSCLC, in the assay on LOX IMVI melanoma and in the assay with EKVX NSCLC was more than 100 µM in each case.

As to `CC(=O)C(CN(C(C)C)C(C)C)C(c1ccccc1)c1c(O)c2ccccc2oc1=O` (configuration not stated), the TGI in the assay on SF-268 CNS, in the assay on MALME-3M melanoma, with SK-MEL-5 melanoma, with 786-0 renal, with UACC-257 melanoma and with SK-OV-3 ovarian was more than 100 µM in each case. Besides, the TGI with CAKI-1 renal, with HOP-62 NSCLC, with LOX IMVI melanoma and with EKVX NSCLC was more than 100 µM each time.

`Cn1ccnc1C(=O)/C=C/c1ccc(CC(=O)Nc2ccc(Br)cc2)cc1`: the GI50 is 3.34 µM in the assay with SF-268 CNS; 4.04 µM in the assay with MALME-3M melanoma; 3.58 µM with SK-MEL-5 melanoma; 2.77 µM in the assay with 786-0 renal; 15.6 µM in the assay on UACC-257 melanoma; 8.88 µM with SK-OV-3 ovarian. Further, the GI50 was 3.59 µM with CAKI-1 renal, 3.34 µM in the assay on HOP-62 NSCLC, 2.07 µM in the assay with LOX IMVI melanoma and 2.76 µM in the assay on EKVX NSCLC. The TGI with SF-268 CNS is 13 µM; in the assay on MALME-3M melanoma it was 10.8 µM; in the assay with SK-MEL-5 melanoma, 8.25 µM; with 786-0 renal it was 5.92 µM; in the assay on UACC-257 melanoma, more than 16.7 µM; with SK-OV-3 ovarian, more than 16.7 µM. The TGI in the assay with CAKI-1 renal turned out to be 11.6 µM; in the assay on HOP-62 NSCLC it was 7.9 µM; in the assay on LOX IMVI melanoma, 4.28 µM; with EKVX NSCLC it was 11.7 µM.

In the case of `COc1cc2c(c(OC)c1O)C(=O)C(OC)C(c1ccc(O)c(O)c1)O2` (configuration not stated), the GI50 with SF-268 CNS was 1.5 µM; in the assay on MALME-3M melanoma, 48.3 µM; in the assay with SK-MEL-5 melanoma, 0.757 µM; with 786-0 renal, 1.05 µM; in the assay with UACC-257 melanoma it was more than 100 µM; in the assay on SK-OV-3 ovarian it was 8.23 µM. In addition, the GI50 with CAKI-1 renal is 0.336 µM; in the assay on HOP-62 NSCLC, 0.712 µM; in the assay with LOX IMVI melanoma, 0.352 µM; with EKVX NSCLC, 15.2 µM. For the same compound, the TGI in the assay on SF-268 CNS is more than 100 µM; with MALME-3M melanoma it was more than 100 µM; in the assay on SK-MEL-5 melanoma it was 3.26 µM; in the assay with 786-0 renal, more than 100 µM; in the assay with UACC-257 melanoma, more than 100 µM; with SK-OV-3 ovarian, more than 100 µM. The TGI in the assay on CAKI-1 renal, with HOP-62 NSCLC, in the assay with LOX IMVI melanoma and with EKVX NSCLC was more than 100 µM throughout.

With `C/C(CCn1[nH]c(=O)ccc1=O)=N\O`, the TGI with SF-268 CNS, in the assay on MALME-3M melanoma, in the assay with SK-MEL-5 melanoma, in the assay with 786-0 renal, with UACC-257 melanoma and with CAKI-1 renal was more than 100 µM each time. Further, the TGI in the assay on HOP-62 NSCLC, in the assay on LOX IMVI melanoma and in the assay with EKVX NSCLC was more than 100 µM throughout.
